Data from EP4786487A1, “PEPTIDE” (Peptidream Inc, priority 2023, dated 2025).
Starred links: 1 amine or outer side, 2 acyl side, 3 side chain; linkers in the order of their positions; H or OH if unused. Positions of bridges follow the written chain, without caps; N, C: chain ends. Non-standard residues stand in square brackets, D forms with d. Residues, ends and D or L forms follow the SMILES beside them. Phe(3-OCH2COOH) = N[C@@H](Cc1cccc(OCC(=O)O)c1)C(=O)O; Phe(4-COOH) = N[C@@H](Cc1ccc(C(=O)O)cc1)C(=O)O; Trp(7-aza) = N[C@@H](Cc1c[nH]c2ncccc12)C(=O)O; Gly(N(CH2)3COOH) = O=C(O)CCCNCC(=O)O; X1 = CCCCCCC[C@H](N[*:1])C(=O)[*:2]; NMeF = CN[C@@H](Cc1ccccc1)C(=O)O; 4Pal = N[C@@H](Cc1ccncc1)C(=O)O; NMeA = CN[C@@H](C)C(=O)O; Sar = CNCC(=O)O

Assays:
Type in all cases: cell-based
GDF-11 = molecular target: T1, GDF-11 (Homo sapiens, UniProt O95390); assay: Reporter gene assay for myostatin signaling in HepG2 cell line, Evaluation Procedure (1), GDF-11 inhibition; conditions: Method A: GDF-11 10 ng/mL; read-out: IC50 (Luciferase) GDF-11 HepG2
T1 construct: purchased R&D systems 1958-GD-G8/CF
T1 sequence (O95390 299-407): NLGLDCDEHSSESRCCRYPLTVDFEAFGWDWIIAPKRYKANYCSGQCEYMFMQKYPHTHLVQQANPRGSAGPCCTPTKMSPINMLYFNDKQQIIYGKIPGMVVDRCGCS
Method in brief: (§1)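 HepG2 cells transfected with pGL3(CAGA)12-luciferase reporter, serum-starved in 0.1% BSA medium, then stimulated with myostatin or GDF-11 plus 4-fold peptide dilutions (0.006–100 nmol/L for myostatin, 0.12–2000 nmol/L for GDF-11) for 20–24 h at 37 °C. Luminescence read with One-Glo; IC50 calculated.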

Myostatin [1] = assay: Reporter gene assay for myostatin signaling in HepG2 cell line, Evaluation Procedure (1), myostatin inhibition; conditions: Method A; GDF-11 IC50 versus Myostatin IC50
Method in brief: as §1

Myostatin [2] = molecular target: T2, Myostatin (Homo sapiens, UniProt O14793); assay: as above; conditions: Method A: Myostatin 10 ng/mL; read-out: IC50 (Luciferase) Myostatin HepG2
T2 construct: active myostatin (also called mature myostatin) is a homodimer consisting of two C-terminal growth factor domains; purchased R&D systems 788-G8/CF
T2 sequence (O14793 267-375): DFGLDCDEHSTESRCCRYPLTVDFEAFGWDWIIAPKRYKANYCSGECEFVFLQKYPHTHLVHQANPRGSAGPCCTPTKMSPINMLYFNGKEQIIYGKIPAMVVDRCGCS
Method in brief: as §1

IC50 (GDF-11) [nM]	IC50 (Myostatin [2]) [nM]	Compound	Selectivity (Myostatin [1])
404	3.9	CCCCCCC[C@@H]1NC(=O)[C@H](Cc2ccccc2)N(C)C(=O)[C@H](CCCNC(=N)N)NC(=O)[C@H](Cc2ccc(C(=O)O)cc2)NC(=O)[C@H](Cc2cccc(OCC(=O)O)c2)NC(=O)CN(C)C(=O)[C@H]([C@@H](C)CC)NC(=O)[C@H](Cc2ccccc2)N(C)C(=O)[C@H](Cc2ccc(O)cc2)NC(=O)[C@H](Cc2c[nH]c3ccccc23)NC(=O)[C@H](CO)NC(=O)[C@H](C)NC(=O)CSC[C@H](C(=O)O)NC(=O)[C@H](Cc2ccccc2)N(C)C(=O)[C@H](C)N(C)C1=O [Myostatin_99_v159] ({CH2CO}-ASWY[NMeF]I[Sar][Phe(3-OCH2COOH)][Phe(4-COOH)]R[NMeF][X1][NMeA][NMeF][dC]-OH; thioether N-15)	104
350	3.2	CCCCCCC[C@@H]1NC(=O)[C@H](Cc2ccccc2)N(C)C(=O)[C@H](CCCNC(=N)N)NC(=O)[C@H](Cc2ccc(C(=O)O)cc2)NC(=O)[C@H](Cc2cccc(OCC(=O)O)c2)NC(=O)CN(C)C(=O)[C@H]([C@@H](C)CC)NC(=O)[C@H](Cc2ccccc2)N(C)C(=O)[C@H](Cc2ccc(O)cc2)NC(=O)[C@H](Cc2c[nH]c3ncccc23)NC(=O)[C@H](CO)NC(=O)[C@H](C)NC(=O)CSC[C@H](C(=O)O)NC(=O)[C@H](Cc2ccccc2)N(C)C(=O)[C@H](C)N(C)C1=O [Myostatin_99_v160] ({CH2CO}-AS[Trp(7-aza)]Y[NMeF]I[Sar][Phe(3-OCH2COOH)][Phe(4-COOH)]R[NMeF][X1][NMeA][NMeF][dC]-OH; thioether N-15)	109
1240	8.2	CCCCCCC[C@@H]1NC(=O)[C@H](Cc2ccccc2)N(C)C(=O)[C@H](CCCNC(=N)N)NC(=O)[C@H](Cc2ccc(C(=O)O)cc2)NC(=O)[C@H](Cc2cccc(OCC(=O)O)c2)NC(=O)CN(C)C(=O)[C@H]([C@@H](C)CC)NC(=O)[C@H](Cc2ccccc2)N(C)C(=O)[C@H](Cc2ccc(O)cc2)NC(=O)[C@H](Cc2c[nH]c3ccccc23)NC(=O)[C@H](CO)NC(=O)CN(CCCC(=O)O)C(=O)CSC[C@H](C(=O)O)NC(=O)[C@H](Cc2ccccc2)N(C)C(=O)[C@H](C)N(C)C1=O [Myostatin_99_v161] ({CH2CO}-[Gly(N(CH2)3COOH)]SWY[NMeF]I[Sar][Phe(3-OCH2COOH)][Phe(4-COOH)]R[NMeF][X1][NMeA][NMeF][dC]-OH; thioether N-15)	151
90	6.1	CCCCCCC[C@@H]1NC(=O)[C@H](Cc2ccccc2)N(C)C(=O)[C@H](CCCNC(=N)N)NC(=O)[C@H](Cc2ccc(C(=O)O)cc2)NC(=O)[C@H](Cc2cccc(OCC(=O)O)c2)NC(=O)CN(C)C(=O)[C@H]([C@@H](C)CC)NC(=O)[C@H](Cc2ccccc2)N(C)C(=O)[C@H](Cc2ccc(O)cc2)NC(=O)[C@H](Cc2c[nH]c3ncccc23)NC(=O)[C@H](CO)NC(=O)CN(CCCC(=O)O)C(=O)CSC[C@H](C(=O)O)NC(=O)[C@H](Cc2ccccc2)N(C)C(=O)[C@H](C)N(C)C1=O [Myostatin_99_v162] ({CH2CO}-[Gly(N(CH2)3COOH)]S[Trp(7-aza)]Y[NMeF]I[Sar][Phe(3-OCH2COOH)][Phe(4-COOH)]R[NMeF][X1][NMeA][NMeF][dC]-OH; thioether N-15)	15
1000	3.6	CCCCCCC[C@@H]1NC(=O)[C@H](Cc2ccccc2)N(C)C(=O)[C@H](CCCNC(=N)N)NC(=O)[C@H](Cc2ccc(C(=O)O)cc2)NC(=O)[C@H](Cc2cccc(OCC(=O)O)c2)NC(=O)[C@H](C)N(C)C(=O)[C@H]([C@@H](C)CC)NC(=O)[C@H](Cc2ccccc2)N(C)C(=O)[C@H](Cc2ccc(O)cc2)NC(=O)[C@H](Cc2c[nH]c3ccccc23)NC(=O)[C@H](CO)NC(=O)CN(CCCC(=O)O)C(=O)CSC[C@H](C(=O)O)NC(=O)[C@H](Cc2ccccc2)N(C)C(=O)[C@H](C)N(C)C1=O [Myostatin_99_v163] ({CH2CO}-[Gly(N(CH2)3COOH)]SWY[NMeF]I[NMeA][Phe(3-OCH2COOH)][Phe(4-COOH)]R[NMeF][X1][NMeA][NMeF][dC]-OH; thioether N-15)	279
1340	4.2	CCCCCCC[C@@H]1NC(=O)[C@H](Cc2ccccc2)N(C)C(=O)[C@H](CCCNC(=N)N)NC(=O)[C@H](Cc2ccc(C(=O)O)cc2)NC(=O)[C@H](Cc2cccc(OCC(=O)O)c2)NC(=O)[C@H](C)N(C)C(=O)[C@H]([C@@H](C)CC)NC(=O)[C@H](Cc2ccccc2)N(C)C(=O)[C@H](Cc2ccc(O)cc2)NC(=O)[C@H](Cc2c[nH]c3ncccc23)NC(=O)[C@H](CO)NC(=O)CN(CCCC(=O)O)C(=O)CSC[C@H](C(=O)O)NC(=O)[C@H](Cc2ccccc2)N(C)C(=O)[C@H](C)N(C)C1=O [Myostatin_99_v164] ({CH2CO}-[Gly(N(CH2)3COOH)]S[Trp(7-aza)]Y[NMeF]I[NMeA][Phe(3-OCH2COOH)][Phe(4-COOH)]R[NMeF][X1][NMeA][NMeF][dC]-OH; thioether N-15)	320
1240	14	CCCCCCC[C@@H]1NC(=O)[C@H](Cc2ccccc2)N(C)C(=O)[C@H](CCCNC(=N)N)NC(=O)[C@H](Cc2ccc(C(=O)O)cc2)NC(=O)[C@H](Cc2cccc(OCC(=O)O)c2)NC(=O)CN(C)C(=O)[C@H]([C@@H](C)CC)NC(=O)[C@H](Cc2ccccc2)N(C)C(=O)[C@H](Cc2ccc(O)cc2)NC(=O)[C@H](Cc2c[nH]c3ccccc23)NC(=O)[C@H](C)NC(=O)CN(CCCC(=O)O)C(=O)CSC[C@H](C(=O)O)NC(=O)[C@H](Cc2ccccc2)N(C)C(=O)[C@H](C)N(C)C1=O [Myostatin_99_v165] ({CH2CO}-[Gly(N(CH2)3COOH)]AWY[NMeF]I[Sar][Phe(3-OCH2COOH)][Phe(4-COOH)]R[NMeF][X1][NMeA][NMeF][dC]-OH; thioether N-15)	89
951	3.5	CCCCCCC[C@@H]1NC(=O)[C@H](Cc2ccccc2)N(C)C(=O)[C@H](CCCNC(=N)N)NC(=O)[C@H](Cc2ccc(C(=O)O)cc2)NC(=O)[C@H](Cc2cccc(OCC(=O)O)c2)NC(=O)CN(C)C(=O)[C@H]([C@@H](C)CC)NC(=O)[C@H](Cc2ccccc2)N(C)C(=O)[C@H](Cc2ccc(O)cc2)NC(=O)[C@H](Cc2c[nH]c3ncccc23)NC(=O)[C@H](C)NC(=O)CN(CCCC(=O)O)C(=O)CSC[C@H](C(=O)O)NC(=O)[C@H](Cc2ccccc2)N(C)C(=O)[C@H](C)N(C)C1=O [Myostatin_99_v166] ({CH2CO}-[Gly(N(CH2)3COOH)]A[Trp(7-aza)]Y[NMeF]I[Sar][Phe(3-OCH2COOH)][Phe(4-COOH)]R[NMeF][X1][NMeA][NMeF][dC]-OH; thioether N-15)	272
214	4.5	CCCCCCC[C@@H]1NC(=O)[C@H](Cc2ccccc2)N(C)C(=O)[C@H](CCCNC(=N)N)NC(=O)[C@H](Cc2ccc(C(=O)O)cc2)NC(=O)[C@H](Cc2ccc(O)cc2)NC(=O)CN(C)C(=O)[C@H]([C@@H](C)CC)NC(=O)[C@H](Cc2ccccc2)N(C)C(=O)[C@H](Cc2ccc(O)cc2)NC(=O)[C@H](Cc2c[nH]c3ccccc23)NC(=O)[C@H](C)NC(=O)CN(CCCC(=O)O)C(=O)CSC[C@H](C(=O)O)NC(=O)[C@H](Cc2ccccc2)N(C)C(=O)[C@H](C)N(C)C1=O [Myostatin_99_v167] ({CH2CO}-[Gly(N(CH2)3COOH)]AWY[NMeF]I[Sar]Y[Phe(4-COOH)]R[NMeF][X1][NMeA][NMeF][dC]-OH; thioether N-15)	48
119	2.1	CCCCCCC[C@@H]1NC(=O)[C@H](Cc2ccccc2)N(C)C(=O)[C@H](CCCNC(=N)N)NC(=O)[C@H](Cc2ccc(C(=O)O)cc2)NC(=O)[C@H](Cc2ccc(O)cc2)NC(=O)CN(C)C(=O)[C@H]([C@@H](C)CC)NC(=O)[C@H](Cc2ccccc2)N(C)C(=O)[C@H](Cc2ccc(O)cc2)NC(=O)[C@H](Cc2c[nH]c3ncccc23)NC(=O)[C@H](C)NC(=O)CN(CCCC(=O)O)C(=O)CSC[C@H](C(=O)O)NC(=O)[C@H](Cc2ccccc2)N(C)C(=O)[C@H](C)N(C)C1=O [Myostatin_99_v168] ({CH2CO}-[Gly(N(CH2)3COOH)]A[Trp(7-aza)]Y[NMeF]I[Sar]Y[Phe(4-COOH)]R[NMeF][X1][NMeA][NMeF][dC]-OH; thioether N-15)	57
372	1.2	CCCCCCC[C@@H]1NC(=O)[C@H](Cc2ccccc2)N(C)C(=O)[C@H](CCCNC(=N)N)NC(=O)[C@H](Cc2ccc(C(=O)O)cc2)NC(=O)[C@H](Cc2ccncc2)NC(=O)CN(C)C(=O)[C@H]([C@@H](C)CC)NC(=O)[C@H](Cc2ccccc2)N(C)C(=O)[C@H](Cc2ccc(O)cc2)NC(=O)[C@H](Cc2c[nH]c3ccccc23)NC(=O)[C@H](C)NC(=O)CN(CCCC(=O)O)C(=O)CSC[C@H](C(=O)O)NC(=O)[C@H](Cc2ccccc2)N(C)C(=O)[C@H](C)N(C)C1=O [Myostatin_99_v169] ({CH2CO}-[Gly(N(CH2)3COOH)]AWY[NMeF]I[Sar][4Pal][Phe(4-COOH)]R[NMeF][X1][NMeA][NMeF][dC]-OH; thioether N-15)	310
